Data set [1] deals with T1, SLCO1B1 (Homo sapiens, UniProt Q9Y6L6).
T1 sequence (Q9Y6L6 1-691): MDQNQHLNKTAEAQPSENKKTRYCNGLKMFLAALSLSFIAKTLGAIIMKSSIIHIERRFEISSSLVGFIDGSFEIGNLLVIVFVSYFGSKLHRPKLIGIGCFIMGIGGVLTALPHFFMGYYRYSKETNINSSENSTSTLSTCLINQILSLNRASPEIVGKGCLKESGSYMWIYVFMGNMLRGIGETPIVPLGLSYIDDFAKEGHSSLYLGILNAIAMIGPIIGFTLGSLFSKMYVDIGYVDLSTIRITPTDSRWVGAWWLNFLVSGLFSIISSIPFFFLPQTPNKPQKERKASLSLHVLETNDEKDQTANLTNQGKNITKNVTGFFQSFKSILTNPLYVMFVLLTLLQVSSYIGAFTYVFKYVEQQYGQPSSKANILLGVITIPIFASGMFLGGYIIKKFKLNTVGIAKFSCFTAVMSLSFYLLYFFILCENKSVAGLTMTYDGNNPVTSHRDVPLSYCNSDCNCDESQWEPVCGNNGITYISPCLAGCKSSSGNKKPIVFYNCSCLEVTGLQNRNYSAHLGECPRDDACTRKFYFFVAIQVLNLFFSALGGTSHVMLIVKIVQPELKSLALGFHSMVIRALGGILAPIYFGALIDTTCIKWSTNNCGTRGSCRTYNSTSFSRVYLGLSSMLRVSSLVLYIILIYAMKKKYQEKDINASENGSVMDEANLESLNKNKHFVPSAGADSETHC
As to the kind of experiment: Inhibition of SLCO1B1-mediated uptake of atorvastatin in HEK293-SLCO1B1 cells. On the set-up: The SLCO1B1 gene was obtained via synthesis and was cloned into the pEGFP-N1 vector; expressed in transfected cells; host or cells: HEK293. In kind it is in vitro ADME. The protocol: As a positive inhibition control, rifampicin at similar concentrations was used. Three independent experiments were performed. […] Proteins were precipitated by adding acetonitrile in a 1:1 ratio to the sample. […] The mobile phase gradient program was as follows: 0-0.6 min-35% A and 65% B, 0.6-5.0 min-5% A and 95% B, 5.0-8.0 min-35% A and 65% B. The flow rate and the column temperature were maintained at 300 μL/min and 35 °C. Aliquots (2 μL) of the extracted samples were injected.

In data set [2] the target is ABCB1 (Homo sapiens, UniProt P08183). In words: Effect on ABCB1-mediated transport of fexofenadine through the Caco-2 cells monolayer. Conditions: all tested concentrations (1–200 µM), Caco-2 monolayer. The method, then: Transport experiments were carried out in Transwell® systems (12 mm Transwell® with 0.4 µm Pore Polycarbonate Membrane Insert, Sterile, «Corning»). The Transwell® system consists of two chambers, apical and basolateral. […] The medium was changed every 2–3 days. The apical and basolateral chambers represent the luminal and blood/mesenteric lymph sides of the gastrointestinal tract, respectively.
ABCB1, sequence (P08183 whole entry): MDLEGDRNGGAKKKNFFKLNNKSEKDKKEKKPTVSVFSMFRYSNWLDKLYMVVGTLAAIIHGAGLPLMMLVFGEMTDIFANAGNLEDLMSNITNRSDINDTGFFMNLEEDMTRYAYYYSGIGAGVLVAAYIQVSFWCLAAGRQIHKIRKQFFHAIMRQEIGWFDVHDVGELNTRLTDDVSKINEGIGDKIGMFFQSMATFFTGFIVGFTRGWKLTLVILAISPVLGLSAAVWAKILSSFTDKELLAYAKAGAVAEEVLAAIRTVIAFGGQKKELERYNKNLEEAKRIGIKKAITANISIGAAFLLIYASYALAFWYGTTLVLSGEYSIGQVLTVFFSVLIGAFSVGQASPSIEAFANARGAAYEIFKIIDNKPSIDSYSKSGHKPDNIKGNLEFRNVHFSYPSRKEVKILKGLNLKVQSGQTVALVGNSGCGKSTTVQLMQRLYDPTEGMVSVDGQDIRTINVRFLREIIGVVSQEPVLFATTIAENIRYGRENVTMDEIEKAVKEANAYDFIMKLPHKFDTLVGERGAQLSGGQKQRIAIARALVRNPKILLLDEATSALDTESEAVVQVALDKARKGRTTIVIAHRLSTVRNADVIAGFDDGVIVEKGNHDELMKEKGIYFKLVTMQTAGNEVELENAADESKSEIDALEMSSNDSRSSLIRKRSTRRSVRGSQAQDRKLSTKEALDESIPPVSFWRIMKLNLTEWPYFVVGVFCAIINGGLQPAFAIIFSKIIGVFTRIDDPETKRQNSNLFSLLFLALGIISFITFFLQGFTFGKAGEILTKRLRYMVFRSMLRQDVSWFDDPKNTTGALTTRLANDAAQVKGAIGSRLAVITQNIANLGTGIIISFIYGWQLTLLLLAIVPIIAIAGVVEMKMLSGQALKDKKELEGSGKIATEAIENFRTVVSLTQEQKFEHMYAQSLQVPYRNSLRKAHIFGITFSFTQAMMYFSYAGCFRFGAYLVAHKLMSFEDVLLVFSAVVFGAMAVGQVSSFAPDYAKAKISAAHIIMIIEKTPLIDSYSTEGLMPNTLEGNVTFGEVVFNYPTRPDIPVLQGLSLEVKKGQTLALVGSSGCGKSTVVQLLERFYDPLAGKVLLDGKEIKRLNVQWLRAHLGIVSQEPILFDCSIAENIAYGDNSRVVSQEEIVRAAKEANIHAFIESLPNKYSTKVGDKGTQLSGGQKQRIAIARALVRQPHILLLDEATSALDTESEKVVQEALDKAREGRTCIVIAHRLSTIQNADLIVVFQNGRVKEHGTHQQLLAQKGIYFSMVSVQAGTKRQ
The transepithelial electrical resistance (TEER) across the cell monolayers was monitored using a Millicell-ERS (electrical resistance system) to assess cell monolayer integrity. For transport studies, only monolayers with a TEER > 500 Ω cm^2 were used.
To study the roles of different parts of the EMHPS molecule for its action on ABCB1, experiments with succinic acid were also carried out.
Prior to the transport experiments, the culture media was aspirated, and the monolayers were washed twice with transport medium and preincubated with EMHPS, succinic acid, or verapamil for 30 min.
The data are presented as the mean ± SD from three monolayers.
The resulting sample of the transport medium (50 μL) was diluted in 150 μL of the mobile phase, and 100 μL of the resulting solution was injected into the chromatograph. A Phenomenex Synergi 4u Polar-RP 80A (250 × 4.6) chromatographic column was used for analysis. The separation temperature was 35 °C; the flow rate was 1 mL/min. Composition of the mobile phase: acetonitrile (128 mL), deionized water (267.4 mL), acetic acid (6.33 mL), triethylamine to pH = 6.7. […] Detection was carried out at a wavelength of 220 nm.
Half maximal inhibitory concentration (IC50) values were determined through nonlinear regression based on the three-parameter logistic function.
A general note: Caco-2 cells form a polarised layer with tight junctions and transporters.

Details of data set [3]: method as in earlier work. To be noted: liver metabolites of EMHPS; cited from earlier work.
The mark [4] stands for this setting: human, HEK293-SLCO1B1 cells, pH 7.4, probe atorvastatin 1 µM.

On to `O=C(O)CCC(=O)O` [succinic acid], for which the “effect on SLCO1B1 activity” value in data set [1] (all tested concentrations (1–500 µM), uptake of 1 µM atorvastatin) is recorded as “did not have a significant effect”. Further, the “effect on Papp b-a, Papp a-b, and ER of fexofenadine transport” value in data set [2] is listed as “did not have a significant effect”.

One may read the IC50 as the midpoint of a concentration-inhibition curve. A lower IC50 goes with greater potency. As usually defined, the inhibition is the change of the read-out against control, counted positive when it falls. A lower inhibition goes with a weak effect. On to `CO[C@H]1/C=C/O[C@@]2(C)Oc3c(C)c(O)c4c(O)c(c(/C=N/N5CCN(C)CC5)c(O)c4c3C2=O)NC(=O)/C(C)=C\C=C\[C@H](C)[C@H](O)[C@@H](C)[C@@H](O)[C@@H](C)[C@H](OC(C)=O)[C@@H]1C` [rifampicin], for which the IC50 in data set [1] worked out at 2.51 ± 1.35 µM. In data set [1] (setting [4]), this molecule yielded an inhibition at 100 µM of 91.2% and an inhibition at 500 µM of 95.4%.

For `CCc1nc(C)ccc1O.O=P(O)(O)O` [2-ethyl-6-methyl-3-hydroxypyridine phosphate], in data set [3], the pharmacological activity result is recorded as “no pharmacological activity”.

As for `CCc1nc(C)ccc1O[C@@H]1O[C@H](C(=O)O)[C@@H](O)[C@H](O)[C@H]1O` [2-ethyl-6-methyl-3-hydroxypyridine glucuronide], the pharmacological activity entry in data set [3] is reported as “no pharmacological activity”.

The record behind these values is article PMC10674565 (Pharmaceuticals, 2023).
